# According to patent publication US9850283B2, “Macrocyclic inhibitors of the PD-1/PD-L1 and CD80(B7-1)/PD-L1 protein/protein interactions” (BRISTOL-MYERS SQUIBB COMPANY, priority 2013, dated 2017):
# Positions of bridges follow the written chain, without caps; N, C: chain ends. Non-standard residues stand in square brackets, D forms with d. Residues, ends and D or L forms follow the SMILES beside them. ξ: configuration not given here. Bta = N[C@@H](Cc1csc2ccccc12)C(=O)O; Hyp = O=C(O)[C@@H]1C[C@@H](O)CN1; NMeNle = CCCC[C@H](NC)C(=O)O; NMeM = CN[C@@H](CCSC)C(=O)O; NMeS = CN[C@@H](CO)C(=O)O; NMeA = CN[C@@H](C)C(=O)O; ξC = NC(CS)C(=O)O
# Legend:
# Human PD-L1/PD-1 = molecular target: T1, Human PD-L1/PD-1 (Homo sapiens, UniProt Q9NZQ7); test: HTRF PD-1-Ig/PD-L1-His binding assay (human PD-L1); details: cluster symbol; read-out: HTRF IC50 cluster
# T1 construct: made in house; host or cells: HEK293T
# T1 sequence (Q9NZQ7 with tags, fused parts or gaps): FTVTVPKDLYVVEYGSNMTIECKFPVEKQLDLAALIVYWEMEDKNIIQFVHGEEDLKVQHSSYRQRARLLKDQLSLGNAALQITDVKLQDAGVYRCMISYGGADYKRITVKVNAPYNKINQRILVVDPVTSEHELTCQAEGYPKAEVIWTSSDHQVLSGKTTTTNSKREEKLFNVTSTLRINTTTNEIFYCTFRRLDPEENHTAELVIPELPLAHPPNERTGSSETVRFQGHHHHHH
# In short: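 Interaction of Fc-tagged soluble PD-1 with His-tagged soluble PD-L1 is monitored by time-resolved FRET. Donor is europium cryptate anti-Ig (1 nM final) and acceptor is APC anti-His (20 nM final). Assay buffer is dPBS with 0.1% BSA and 0.05% Tween-20.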
# [1] = molecular target: T2, LK35.2-hPD-L1 cells / PE-labeled PD-1-Ig (Homo sapiens, UniProt Q9NZQ7); test: LK35.2-hPD-L1 cell binding high-content screening assay; type: cell-based; details: cell binding assay, cell line not given; cluster symbol; read-out: CBA IC50 cluster
# T2 construct: expressed in transfected cells; host or cells: LK35.2 mouse B cell line
# T2 sequence (Q9NZQ7 19-290): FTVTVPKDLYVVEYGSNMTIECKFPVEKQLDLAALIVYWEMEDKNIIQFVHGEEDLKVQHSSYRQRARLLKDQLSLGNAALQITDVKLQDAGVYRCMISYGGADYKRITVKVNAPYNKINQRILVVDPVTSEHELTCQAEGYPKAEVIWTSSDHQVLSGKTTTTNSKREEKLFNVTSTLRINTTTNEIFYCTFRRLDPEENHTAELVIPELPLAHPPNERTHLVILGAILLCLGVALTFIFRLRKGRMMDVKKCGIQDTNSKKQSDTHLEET
# In short: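 Binding of PE-conjugated human PD-1-Ig (1 nM final) to human PD-L1 stably expressed on a mouse B-cell line (LK35.2) was measured by high-content imaging after washes. Compound and labeled PD-1-Ig were co-incubated 1 h at 37 °C with cells in RPMI/10% FCS.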
IC50 (Human PD-L1/PD-1) [nM],IC50 [1] [nM],SMILES
0.385 to 6.74,0.158 to 4.71,CCCC[C@H]1C(=O)N(C)[C@@H](CCCC)C(=O)N[C@@H](CO)C(=O)NC(C(=O)NCC(N)=O)CSCC(=O)N[C@@H](Cc2ccc(O)cc2)C(=O)N(C)[C@@H](C)C(=O)N[C@@H](CC(N)=O)C(=O)N2CCC[C@H]2C(=O)N[C@@H](Cc2cnc[nH]2)C(=O)N[C@@H](CC(C)C)C(=O)N2CCC[C@H]2C(=O)N[C@@H](Cc2c[nH]c3ccccc23)C(=O)N[C@@H](CO)C(=O)N[C@@H](Cc2csc3ccccc23)C(=O)N1C (stereo partly drawn) [Example 9027] ({CH2CO}-Y[NMeA]NPHLPWS[Bta][NMeNle][NMeNle]S[ξC]G-NH2; thioether N-14)
0.385 to 6.74,0.158 to 4.71,CCCC[C@H]1C(=O)N(C)[C@@H](CCCC)C(=O)N[C@@H](CO)C(=O)NC(C(=O)NCC(N)=O)CSCC(=O)N[C@@H](Cc2ccc(O)cc2)C(=O)N(C)[C@@H](C)C(=O)N[C@@H](CC(N)=O)C(=O)N2CCC[C@H]2C(=O)N[C@@H](Cc2cnc[nH]2)C(=O)N[C@@H](CC(C)C)C(=O)N2C[C@H](O)C[C@H]2C(=O)N[C@@H](Cc2c[nH]c3ccccc23)C(=O)N[C@@H](CO)C(=O)N[C@@H](Cc2csc3ccccc23)C(=O)N1C (stereo partly drawn) [Example 9028] ({CH2CO}-Y[NMeA]NPHL[Hyp]WS[Bta][NMeNle][NMeNle]S[ξC]G-NH2; thioether N-14)
6.76 to 30.3,0.158 to 4.71,CCCC[C@H]1C(=O)N(C)[C@@H](CCCC)C(=O)N[C@@H](CO)C(=O)NC(C(=O)NCC(N)=O)CSCC(=O)N[C@@H](Cc2ccc(O)cc2)C(=O)N(C)[C@@H](C)C(=O)N[C@@H](CC(N)=O)C(=O)N2CCC[C@H]2C(=O)N[C@@H](Cc2cnc[nH]2)C(=O)N[C@@H](CC(C)C)C(=O)N2C[C@H](O)C[C@H]2C(=O)N[C@@H](Cc2c[nH]c3ccccc23)C(=O)N[C@@H](CO)C(=O)N[C@@H](Cc2c[nH]c3ccccc23)C(=O)N1C (stereo partly drawn) [Example 9029]
0.385 to 6.74,0.158 to 4.71,CCCC[C@H]1C(=O)N(C)[C@@H](CCSC)C(=O)N[C@@H](CCCNC(=N)N)C(=O)NC(C(=O)NCC(N)=O)CSCC(=O)N[C@@H](Cc2ccc(O)cc2)C(=O)N(C)[C@@H](C)C(=O)N[C@@H](CC(N)=O)C(=O)N2CCC[C@H]2C(=O)N[C@@H](Cc2cnc[nH]2)C(=O)N[C@@H](CC(C)C)C(=O)N2CCC[C@H]2C(=O)N[C@@H](Cc2c[nH]c3ccccc23)C(=O)N[C@@H](CO)C(=O)N[C@@H](Cc2c[nH]c3ccccc23)C(=O)N1C (stereo partly drawn) [Example 9030] ({CH2CO}-Y[NMeA]NPHLPWSW[NMeNle][NMeM]R[ξC]G-NH2; thioether N-14)
6.76 to 30.3,4.78 to 72.9,CCCC[C@H]1C(=O)N(C)[C@@H](CO)C(=O)N[C@@H](CCCNC(=N)N)C(=O)NC(C(=O)NCC(N)=O)CSCC(=O)N[C@@H](Cc2ccc(O)cc2)C(=O)N(C)[C@@H](C)C(=O)N[C@@H](CC(N)=O)C(=O)N2CCC[C@H]2C(=O)N[C@@H](Cc2cnc[nH]2)C(=O)N[C@@H](CC(C)C)C(=O)N2CCC[C@H]2C(=O)N[C@@H](Cc2c[nH]c3ccccc23)C(=O)N[C@@H](CO)C(=O)N[C@@H](Cc2c[nH]c3ccccc23)C(=O)N1C (stereo partly drawn) [Example 9032] ({CH2CO}-Y[NMeA]NPHLPWSW[NMeNle][NMeS]R[ξC]G-NH2; thioether N-14)
6.76 to 30.3,0.158 to 4.71,CCCC[C@H]1C(=O)N(C)[C@@H](CO)C(=O)N[C@@H](CCCNC(=N)N)C(=O)NC(C(=O)NCC(N)=O)CSCC(=O)N[C@@H](Cc2ccc(O)cc2)C(=O)N(C)[C@@H](C)C(=O)N[C@@H](CC(N)=O)C(=O)N2CCC[C@H]2C(=O)N[C@@H](Cc2cnc[nH]2)C(=O)N[C@@H](CC(C)C)C(=O)N2C[C@H](O)C[C@H]2C(=O)N[C@@H](Cc2c[nH]c3ccccc23)C(=O)N[C@@H](CO)C(=O)N[C@@H](Cc2csc3ccccc23)C(=O)N1C (stereo partly drawn) [Example 9033] ({CH2CO}-Y[NMeA]NPHL[Hyp]WS[Bta][NMeNle][NMeS]R[ξC]G-NH2; thioether N-14)
6.76 to 30.3,4.78 to 72.9,CCCC[C@H]1C(=O)N(C)[C@@H](CO)C(=O)N[C@@H](CCCNC(=N)N)C(=O)NC(C(=O)NCC(N)=O)CSCC(=O)N[C@@H](Cc2ccc(O)cc2)C(=O)N(C)[C@@H](C)C(=O)N[C@@H](CC(N)=O)C(=O)N2CCC[C@H]2C(=O)N[C@@H](Cc2cnc[nH]2)C(=O)N[C@@H](CC(C)C)C(=O)N2C[C@H](O)C[C@H]2C(=O)N[C@@H](Cc2c[nH]c3ccccc23)C(=O)N[C@@H](CO)C(=O)N[C@@H](Cc2c[nH]c3ccccc23)C(=O)N1C (stereo partly drawn) [Example 9034]
6.76 to 30.3,4.78 to 72.9,CCCC[C@H]1C(=O)N(C)[C@@H](CCCC)C(=O)N[C@@H](CCCNC(=N)N)C(=O)NC(C(=O)NCC(N)=O)CSCC(=O)N[C@@H](Cc2ccc(O)cc2)C(=O)N(C)[C@@H](CO)C(=O)N[C@@H](CC(N)=O)C(=O)N2CCC[C@H]2C(=O)N[C@@H](Cc2cnc[nH]2)C(=O)N[C@@H](CC(C)C)C(=O)N2CCC[C@H]2C(=O)N[C@@H](Cc2c[nH]c3ccccc23)C(=O)N[C@@H](CO)C(=O)N[C@@H](Cc2csc3ccccc23)C(=O)N1C (stereo partly drawn) [Example 9035] ({CH2CO}-Y[NMeS]NPHLPWS[Bta][NMeNle][NMeNle]R[ξC]G-NH2; thioether N-14)
0.385 to 6.74,0.158 to 4.71,CCCC[C@H]1C(=O)N(C)[C@@H](CCCC)C(=O)N[C@@H](CCCNC(=N)N)C(=O)NC(C(=O)NCC(N)=O)CSCC(=O)N[C@@H](Cc2ccc(O)cc2)C(=O)N(C)[C@@H](CO)C(=O)N[C@@H](CC(N)=O)C(=O)N2CCC[C@H]2C(=O)N[C@@H](Cc2cnc[nH]2)C(=O)N[C@@H](CC(C)C)C(=O)N2C[C@H](O)C[C@H]2C(=O)N[C@@H](Cc2c[nH]c3ccccc23)C(=O)N[C@@H](CO)C(=O)N[C@@H](Cc2c[nH]c3ccccc23)C(=O)N1C (stereo partly drawn) [Example 9036]
6.76 to 30.3,0.158 to 4.71,CCCC[C@H]1C(=O)N(C)[C@@H](CCCC)C(=O)N[C@@H](CCCNC(=N)N)C(=O)NC(C(=O)N[C@@H](CO)C(N)=O)CSCC(=O)N[C@@H](Cc2ccc(O)cc2)C(=O)N(C)[C@@H](C)C(=O)N[C@@H](CC(N)=O)C(=O)N2CCC[C@H]2C(=O)N[C@@H](Cc2cnc[nH]2)C(=O)N[C@@H](CC(C)C)C(=O)N2CCC[C@H]2C(=O)N[C@@H](Cc2c[nH]c3ccccc23)C(=O)N[C@@H](CO)C(=O)N[C@@H](Cc2c[nH]c3ccccc23)C(=O)N1C (stereo partly drawn) [Example 9037] ({CH2CO}-Y[NMeA]NPHLPWSW[NMeNle][NMeNle]R[ξC]S-NH2; thioether N-14)
6.76 to 30.3,4.78 to 72.9,CCCC[C@H]1C(=O)N(C)[C@@H](CCCC)C(=O)N[C@@H](CCCNC(=N)N)C(=O)NC(C(=O)NCC(N)=O)CSCC(=O)N[C@@H](Cc2ccc(O)cc2)C(=O)N(C)[C@@H](CO)C(=O)N[C@@H](CC(N)=O)C(=O)N2CCC[C@H]2C(=O)N[C@@H](Cc2cnc[nH]2)C(=O)N[C@@H](CC(C)C)C(=O)N2CCC[C@H]2C(=O)N[C@@H](Cc2c[nH]c3ccccc23)C(=O)N[C@@H](CO)C(=O)N[C@@H](Cc2c[nH]c3ccccc23)C(=O)N1C (stereo partly drawn) [Example 9038] ({CH2CO}-Y[NMeS]NPHLPWSW[NMeNle][NMeNle]R[ξC]G-NH2; thioether N-14)
0.385 to 6.74,0.158 to 4.71,CCCC[C@H]1C(=O)N(C)[C@@H](CCCC)C(=O)N[C@@H](CCCNC(=N)N)C(=O)NC(C(=O)NCC(N)=O)CSCC(=O)N[C@@H](Cc2ccc(O)cc2)C(=O)N(C)[C@@H](CO)C(=O)N[C@@H](CC(N)=O)C(=O)N2CCC[C@H]2C(=O)N[C@@H](Cc2cnc[nH]2)C(=O)N[C@@H](CC(C)C)C(=O)N2C[C@H](O)C[C@H]2C(=O)N[C@@H](Cc2c[nH]c3ccccc23)C(=O)N[C@@H](CO)C(=O)N[C@@H](Cc2csc3ccccc23)C(=O)N1C (stereo partly drawn) [Example 9039] ({CH2CO}-Y[NMeS]NPHL[Hyp]WS[Bta][NMeNle][NMeNle]R[ξC]G-NH2; thioether N-14)
0.385 to 6.74,0.158 to 4.71,CCCC[C@H]1C(=O)N(C)[C@@H](COCC)C(=O)N[C@@H](CCCNC(=N)N)C(=O)NC(C(=O)NCC(N)=O)CSCC(=O)N[C@@H](Cc2ccc(O)cc2)C(=O)N(C)[C@@H](C)C(=O)N[C@@H](CC(N)=O)C(=O)N2CCC[C@H]2C(=O)N[C@@H](Cc2cnc[nH]2)C(=O)N[C@@H](CC(C)C)C(=O)N2CCC[C@H]2C(=O)N[C@@H](Cc2c[nH]c3ccccc23)C(=O)N[C@@H](CO)C(=O)N[C@@H](Cc2csc3ccccc23)C(=O)N1C (stereo partly drawn) [Example 9040] ({CH2CO}-Y[NMeA]NPHLPWS[Bta][NMeNle][NMeS](Et)R[ξC]G-NH2; thioether N-14)
0.385 to 6.74,0.158 to 4.71,CCCC[C@H]1C(=O)N(C)[C@@H](COCC)C(=O)N[C@@H](CCCNC(=N)N)C(=O)NC(C(=O)NCC(N)=O)CSCC(=O)N[C@@H](Cc2ccc(O)cc2)C(=O)N(C)[C@@H](C)C(=O)N[C@@H](CC(N)=O)C(=O)N2CCC[C@H]2C(=O)N[C@@H](Cc2cnc[nH]2)C(=O)N[C@@H](CC(C)C)C(=O)N2CCC[C@H]2C(=O)N[C@@H](Cc2c[nH]c3ccccc23)C(=O)N[C@@H](CO)C(=O)N[C@@H](Cc2c[nH]c3ccccc23)C(=O)N1C (stereo partly drawn) [Example 9041] ({CH2CO}-Y[NMeA]NPHLPWSW[NMeNle][NMeS](Et)R[ξC]G-NH2; thioether N-14)
0.385 to 6.74,0.158 to 4.71,CCCC[C@H]1C(=O)N(C)[C@@H](COCC)C(=O)N[C@@H](CCCNC(=N)N)C(=O)NC(C(=O)NCC(N)=O)CSCC(=O)N[C@@H](Cc2ccc(O)cc2)C(=O)N(C)[C@@H](C)C(=O)N[C@@H](CC(N)=O)C(=O)N2CCC[C@H]2C(=O)N[C@@H](Cc2cnc[nH]2)C(=O)N[C@@H](CC(C)C)C(=O)N2C[C@H](O)C[C@H]2C(=O)N[C@@H](Cc2c[nH]c3ccccc23)C(=O)N[C@@H](CO)C(=O)N[C@@H](Cc2csc3ccccc23)C(=O)N1C (stereo partly drawn) [Example 9042] ({CH2CO}-Y[NMeA]NPHL[Hyp]WS[Bta][NMeNle][NMeS](Et)R[ξC]G-NH2; thioether N-14)
